Experimental data published in patent publication US20210386791A1, “METHODS OF CELLULAR REPROGRAMMING” (TissueTech, Inc., priority 2018, published 2021).

Experiments:
Assay type in all cases: cell-based
[1] = test system: human corneal fibroblasts (HCF); assay: Reversal of HCF to keratocytes on immobilized HC-HA/PTX3 with or without SB431542 or AMD3100
Method: A total of 86 human corneas from individuals aged 18-76 years and maintained at 4° C. in Optisol (Chiron Vision, Irvine, Calif.) for less than 7 days after death were obtained from the Florida Lions Eye Bank (Miami, Fla.) and handled according to the declaration of Helsinki. HCF were isolated and cultured. Briefly, the sheets of the epithelium and the endothelium were removed from corneas, the stroma sections were cut into cubes of approximately 1 mm3, incubated in 2 mg/ml collagenase for 16 h at 37° C., and then placed in a culture medium consisting of DMEM supplemented with 10% fetal bovine serum containing […]. The culture medium was refreshed twice a week. The cells cultured to passage 3 were used for all experiments. To reverse fibroblasts or myofibroblasts into keratocytes, fibroblasts or myofibroblasts were cultured on immobilized HC-HA/PTX3 in DMEM+10% FBS for 3 days using the samples from the cells on plastic and HA as the controls. Some of the cell cultures were extended to up to 7 days of culture to monitor the expression of α-SMA formation. Total RNAs were extracted using RNeasy Mini Kit (Qiagen) and reverse-transcribed using High Capacity Reverse Transcription Kit (Applied Biosystems). cDNA was amplified by real-time RT-PCR using specific primer-probe mixtures and DNA polymerase in Quant Studio 5 Real-time PCR System (Applied Biosystems). Real-time RT-PCR profile consisted of 10 min of initial activation at 95° C., followed by 40 cycles of 15 s denaturation at 95° C., and 1 min annealing and extension at 60° C. The genuine identity of each PCR product was confirmed by the size determination using 2% agarose gels followed by ethidium bromide staining together with PCR marker according to EC3 Imaging System (BioImaging System, Upland, Calif.). The samples of human corneal fibroblasts, myofibroblasts and corneal keratocytes were air-dried and fixed in 4% formaldehyde, pH 7.0, for 15 min at room temperature, rehydrated in PBS, incubated with 0.2% Triton X-100 for 15 min, and rinsed 3 times with PBS for 5 min each. […] After three washes with PBS, they were incubated with corresponding Alexa-Fluor-conjugated secondary IgG (all 1:100 dilution) for 60 min. The samples were then counterstained with Hoechst 33342 and analyzed in Zeiss LSM 700 confocal microscope (Thornhood, N.Y.). Corresponding mouse and rabbit sera were used as negative controls for primary monoclonal and polyclonal antibodies, respectively. Cell lysates were prepared in RIPA buffer and resolved on 4-15% (w/v) gradient acrylamide gels under denaturing and reducing conditions for Western blotting. The protein extracts were transferred to the nitrocellulose membrane, which was then blocked with 5% (w/v) fat-free milk in TBST [50 mM Tris-HCl, pH 7.5, 150 mM NaCl, 0.05% (v/v) Tween-20], followed by sequential incubation with the specific primary antibody against keratocan and its respective horseradish peroxidase (HRP)-conjugated secondary antibody using β-actin as the loading control. Immunoreactive proteins were detected with Western Lighting Chemiluminescence (PerkinElmer, Waltham, Mass.).

[2] = test system: human corneal fibroblasts (HCF); assay: Timing course analysis of SDF1/CXCR4 and BMP signaling in HCF
[3] = test system: P10 LNC (human limbal niche cells); assay: P10 LNC on coated MG with soluble HC-HA/PTX3 with or without AMD3100, LDN-193189 or BMP receptor siRNAs; conditions: for upregulation of CXCR4 transcript by soluble HC-HA/PTX3: with CXCR4 inhibitor
Method: Upon 80% confluence, P10 LNC cultured on coated Matrigel™ (MG) were pre-treated with 0.1% DMSO with or without 20 μg/mL AMD3100 or 100 nM LDN-193189 for 30 min before being trypsinized and seeded at 2×10^5/mL on coated MG in MESCM containing 20 μg/mL of AMD3100 or 100 nM LDN-193189 with 25 μg/mL soluble HC-HA/PTX3 for another 48 h. For the siRNA knockdown, 80% confluent P10 LNC on 6-well coated MG were subjected to transfection by mixing 200 μl of serum-free, antibiotic-free MESCM with 4 μL of HiPerFect siRNA transfection reagent (final dilution, 1:300) and 6 μl of 20 μM of scRNA or siRNAs for BMPR1A, BMPR1B, BMPR2, and ACVR1 at the final concentration of 100 nM, drop-wise, followed by culturing in 1 mL of fresh MESCM at 37° C. for 24 h before soluble HC-HA/PTX3 was added at a final concentration of 25 μg/mL in the MESCM medium.
RNA extract was reverse transcribed to cDNA with reverse-transcribed using High Capacity Reverse Transcription Kit (Applied Biosystems, Foster City, Calif.) using primers listed in Supplementary Table S3. The resultant cDNAs were amplified by specific TaqMan gene expression assay mix and universal PCR master mix in QuantStudio™ 5 Real Time PCR System (ThermoFisher, Santa Clara, Calif.) with real-time RT-PCR profile consisting of 10 min of initial activation at 95° C., followed by 40 cycles of 15 sec denaturation at 95° C., and 1 min annealing and extension at 60° C. The relative gene expression data were analyzed by the comparative CT method (MET). All assays were performed in triplicate. The results were normalized by glyceraldehyde 3-phosphate dehydrogenase (GAPDH) as an internal control.
Single cells of LNC at different passages were harvested with 0.05% trypsin and 1 mM EDTA at 37° C. for 10 min and prepared for cytospin using Cytofuge (StatSpin Inc., Norwood, Mass.) at 1000 rpm for 8 min. Cells were fixed with 4% formaldehyde, pH 7.0, for 15 min at room temperature, permeabilized with 0.2% Triton X-100 in PBS for 15 min and blocked with 2% bovine serum albumin (BSA) for 1 h before incubated with primary antibodies for 16 h at 4° C. After 3 washes with PBS, the corresponding Alexa Fluor-conjugated secondary IgG (all 1:100 dilution) were incubated for 60 min and 3 washing with PBS. After 3 washes with PBS, the second primary antibodies was incubated for 60 min and followed with the corresponding Alex Fluor-conjugated secondary IgG. The nucleus was counterstained with Hoechst 33342 before being analyzed with Zeiss LSM 700 confocal microscope (Carl Zeiss, Thornwood, N.Y.). Corresponding mouse and rabbit sera were used as negative controls for primary monoclonal and polyclonal antibodies, respectively.

[4] = test system: human corneal fibroblasts (HCF); assay: P3 HCF on plastic with or without immobilized HA or HC-HA/PTX3, with or without TGFβ1: mRNA, ELISA, Western blot, immunostaining; conditions: with TGFβ1
Method: A total of 89 human corneas from individuals aged 18-76 years and maintained at 4° C. in Optisol (Chiron Vision, Irvine, Calif.) for less than 7 days after death were obtained from the Florida Lions Eye Bank (Miami, Fla.) and handled according to the declaration of Helsinki. HCF were isolated and cultured. Epithelial and endothelial cells were removed from corneas, the stroma was cut into cubes of approximately 1 mm^3, incubated in 2 mg/ml collagenase for 16 h at 37° C., and then placed in a culture medium consisting of Dulbecco's modified Eagle's medium (DMEM) supplemented with 10% fetal bovine serum containing […]. The culture medium was changed twice a week. The morphology of the cells was monitored by Nikon Eclipse TS 100 microscope (Melville, N.Y.). Cells cultured to passage 3 (P3) were used for all experiments.
Human corneal fibroblasts (P3) were seeded on plastics with or without immobilized HC-HA/PTX3 complex for 72 h in DMEM+10% FBS, then serum starved for 24 h and treated with or without TGFβ1 for 24 h before being harvested for mRNA quantitation or immunostaining. For determination of protein of TGFβ receptor or p75NTR, the cells were treated with or without TGF-β1 for 48 h before collection of protein samples because the protein expression lags behind mRNA expression. For TGF-β1 ELISA, the cells were treated with or without TGF-β1 for 24 h, and then cultured in the fresh medium for another 24 h. The supernatants were collected for TGFβ1 ELISA. For TGFβ2 and TGFβ3 ELISA, the cells were treated with or without TGFβ1 for 48 h. Certain HCF were seeded on glass in DMEM+10% FBS for 24 h, then in DMEM+ITS (insulin-transferrin-selenium) for 24 h, treated with/without PBS or hyaluronic acid (HA) or HC-HA/PTX3±TGFβ1 (10 ng/ml)±Marimastat (10 μM) or ±DAPT (10 μM) or ±both for 0, 5, 15, 30 and 45 minutes before being harvested for immunostaining of CD44-ICD, JNK1, Cyclin D1 and p75NTR and for 5 minutes before being harvested for Western blotting of cytoplasmic and nuclear CD44-ICD, active MT1-MMP, and active γ-secretase after compartmental separation of the cellular components.
Total RNAs were extracted using RNeasy Mini Kit and were reverse transcribed using High Capacity Reverse Transcription Kit (Applied Biosystems). cDNA obtained was amplified by real-time RT-PCR using specific primer-probe mixtures and DNA polymerase in 7000 Real-time PCR System (Thermo-Fisher Scientific, Carlsbad, Calif.). Real-time RT-PCR profile consisted of 10 minutes of initial activation at 95° C., followed by 40 cycles of 15 seconds denaturation at 95° C., and 1 min annealing and 1 min extension at 60° C. The genuine identity of each PCR product was confirmed by the size determination using 2% agarose gels followed by ethidium bromide staining together with PCR marker according to EC3 Imaging System (BioImaging System, Upland, Calif.).
The Quantikine Human ELISA Kits of TGFβs were used for determination of TGFβs following the manufacturer's instructions (R and D Systems, Minneapolis, Minn.).
HCF, induced human corneal endothelial cells (HCEC), and HCEC monolayer cultures were air-dried and fixed in 4% formaldehyde, pH 7.0, for 15 min at room temperature, rehydrated in PBS, incubated with 0.2% Triton X-100 for 15 min, and rinsed three times with PBS for 5 min each. After incubation with 2% BSA to block non-specific staining for 30 min, they were incubated with the desired first antibody (all at 1:50 dilution) for 16 h at 4° C. After three washes with PBS, they were incubated with corresponding Alexa-Fluor-conjugated secondary IgG (all 1:100 dilutions) for 60 min. The samples were then counterstained with Hoechst 33342 and analyzed with Zeiss LSM 700 confocal microscope (Thornhood, N.Y.). Corresponding mouse and rabbit sera were used as negative controls for primary monoclonal and polyclonal antibodies, respectively. […]

[5] = HCF on HC-HA/PTX3 with CXCR4 inhibitor
[6] = soluble HC-HA/PTX3 with AMD3100

## c1cc(CN2CCCNCCNCCCNCC2)ccc1CN1CCCNCCNCCCNCC1 [AMD3100]
[1]; [5]
  cell aggregation, mRNA overexpression of SDF1 and CXCR4, CXCR4 nuclear translocation: completely attenuated
  keratocan protein expression: blockade
  transcript expression of BMP4, BMP6, BMPR1A, BMPR1B, BMPR2 and nuclear translocation of pSMAD1/5: completely nullified
[2]; with AMD3100
  aggregation and expression of SDF1, CXCR4, BMP4 and BMP6 induced by HC-HA/PTX3: completely blocked
  nuclear translocation of CXCR4 and pSMAD1/5: eliminated
[3]; after addition of AMD3100
  immunostaining of SDF-1: became negative
[3]; [6]
  Pax6, p75NTR, NGF, Musashi-1, Msx-1 and FoxD3 transcripts: significant downregulation
  immunofluorescence staining pattern of CXCR4: reverted to that of 3D MG
  staining of pSmad1/5/8: deactivated to cytoplasmic staining
[3]; soluble HC-HA/PTX3 with AMD3100, throughout 48 h
  transcript levels of BMP2, BMP4 and BMP6: aborted
[3]; with AMD3100
  nuclear Pax6 staining promoted by soluble HC-HA/PTX3: aborted
[3]; with AMD3100 20 μg/mL, 60 min
  cell aggregation promoted by soluble HC-HA/PTX3: completed aborted
[3]; with AMD3100, 24 h
  upregulation of SDF-1 transcript by soluble HC-HA/PTX3: completely abolished
[3]; 24 h
  upregulation of CXCR4 transcript by soluble HC-HA/PTX3: significantly downregulated
[3]; 48 h
  upregulation of CXCR4 transcript by soluble HC-HA/PTX3: completely aborted

## c1ccc2c(-c3cnn4cc(-c5ccc(N6CCNCC6)cc5)cnc34)ccnc2c1 [LDN-193189]
[3]; BMP signaling suppressed
  transient nuclear translocation of CXCR4 and nuclear Pax6 staining: not affected
[3]; BMP signaling suppressed, compared to scRNA control
  cell aggregation by soluble HC-HA/PTX3: not affect
[3]; BMP signaling suppressed, throughout 48 h
  expression level of CXCR4 and SDF-1: no significant difference

## NC(=O)c1ccc(-c2nc(-c3ccc4c(c3)OCO4)c(-c3ccccn3)[nH]2)cc1 [SB431542]
[1]; HCF on HC-HA/PTX3 with BMP inhibitor
  BMP signaling and keratocan mRNA and protein expression: completely inhibited
[2]; HC-HA/PTX3 with SB431542
  aggregation, expression of SDF1 and CXCR4 and nuclear translocation of CXCR4: did not affect
[2]; with SB431542
  expression of BMP4 and BMP6 and nuclear translocation of pSMAD1/5 induced by HC-HA/PTX3: completely inhibited

## TGFβ1: exogenous transforming growth factor β1, 10 ng/ml challenge
[4]
  NC marker mRNA, p75NTR protein and p75NTR nuclear translocation: upregulated on plastic
